Experimental findings from patent publication US20240287052A1, “NOVEL OXAZOLE DERIVATIVE AND PHARMACEUTICAL COMPOSITION FOR PREVENTING OR TREATING ALLERGIC DISEASES COMPRISING THE SAME” (AZCURIS CO., LTD., priority 2021, published 2024) are described below.

Data set [1] has as its target T1, IL33 and ST2 binding (Homo sapiens, UniProt O95760).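 Further: plate ELISA with coated Flag-tagged human IL-33 and His-tagged human ST2, bound ST2 detected by anti-His HRP and TMB absorbance at 450 nm, 2 h compound incubation.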
T1 sequence (O95760 112-270 limits assumed): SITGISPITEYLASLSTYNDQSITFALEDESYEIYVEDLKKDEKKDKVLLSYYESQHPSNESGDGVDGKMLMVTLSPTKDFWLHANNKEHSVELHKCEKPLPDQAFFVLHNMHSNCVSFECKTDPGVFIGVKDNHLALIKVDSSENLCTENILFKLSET
As to the kind of experiment: biochemical.

Data set [2] has as its system IL-6 secretion in the human mast cell line HMC 1.1. Put plainly: IL-6 production inhibition assay (IL-33 stimulated HMC 1.1 cells, IL-6 ELISA). Type of data set: cell-based. Conditions: for inhibition at 1 µM: 1 μM compound, read-out: Inhibition of hIL-6 production (%) 1 μM; for inhibition at 1 µM / inhibition at 10 µM / inhibition at 0.1 µM: 24 hours; for inhibition at 10 µM: 10 μM compound, read-out: Inhibition of hIL-6 production (%) 10 μM; for EC50: read-out: Inhibition of hIL-6 production EC50; for inhibition at 0.1 µM: 0.1 μM compound, read-out: Inhibition of hIL-6 production (%) 0.1 μM. In outline:
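HMC 1.1 cells stimulated with 200 nM recombinant human IL-33 were exposed 24 hours to compound at 10 μM, 25 μM, 30 μM or 50 μM, among other levels. Secreted IL-6 was quantified by ELISA in triplicate against a standard curve and expressed as % of vehicle.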

Data set [3] deals with T1, IL33 and ST2 binding.
A short description of data set [4]: Cellular viability, WST-8 assay, without or with human liver microsomes. It counts as cell-based. As for the experimental part:
(§1) Human liver cancer cell line HepG2 cells were cultured in a medium (high glucose Dulbecco's Modified Eagle Medium, DMEM, HyClone) supplemented with 10% fetal bovine serum (FBS, HyClone) and 1% antibiotic in a thermostat maintained at 37° C. with 5% CO2.
(§2) HepG2 cells, which are adherent cells, were […] or presence of human liver microsomes (Gibco) and NADPH regenerating system.
(§3) Cell cultures were exchanged using […] of medium (high glucose Dulbecco's Modified Eagle Medium, DMEM, HyClone) and incubated for 24 hours.
(§4) After adding 10 μL of WST-8 (abCam), the absorbance was obtained at 460 nm after 5 seconds of orbital shaking with a microplate reader (Tecan, Spark©) 2 hours later.
(§5) The mean of the three values obtained in triplicate was calculated and expressed as % cellular viability compared to vehicle treatment.
Background: Tetrazolium dyes change colour on reduction, which living cells bring about.

Data set [5] concerns Human liver cancer cell line HepG2 cells. The description is as above. It counts as cell-based. Conditions: for Cellular viability (%) (+) microsome: HepG2, with human liver microsomes; for Cellular viability (%) (−) microsome: HepG2, without human liver microsomes. Here is the method:
as §1, §2, §3, §4, §5
For orientation: Microsomes from liver hold many membrane-bound enzymes, among them those of drug oxidation.

Setting [6] is: HepG2, with human liver microsomes, read-out: CC50 (μM) (+) microsome.
Where [7] appears, read: HepG2 cells, HepG2, without human liver microsomes, read-out: CC50 (μM) (−) microsome.

Like-named read-outs stand apart in the source and are kept apart here.

The IC50 is the midpoint of a concentration-inhibition curve. The term inhibition denotes the drop in the measured response relative to a control, in per cent. The term CC50 denotes the concentration at which the toxic effect on the cells reaches its halfway point. `CN(C)CCNC(=O)c1nc(-c2ccc(C#N)cc2)oc1-c1ccccc1` [Compound 249, 2-(4-Cyanophenyl)-N-(2-(dimethylamino)ethyl)-5-phenyloxazole-4-carboxamide] came in with an IC50 at IL33 and ST2 binding [1] of 6.46 µM. Also, the inhibition at 1 µM in data set [2] is 8%. For the same molecule, the inhibition at 10 µM in data set [2] was 35%. Besides, the inhibition at IL33 and ST2 binding [3] (30 µM) came out at 81%; at IL33 and ST2 binding [3] (100 µM) it was 97%. The CC50 at 24 h in data set [4] (setting [6]) amounted to 29.1 µM; in data set [4] (setting [7]), 19 µM. Moreover, the “Cellular viability (%) (+) microsome” value in data set [5] (at 100 μM) turned out to be 50 at %. Also, the “Cellular viability (%) (−) microsome” value in data set [5] (at 100 μM) was 43 at %.

In general, EC50 refers to the concentration that produces a half-maximal response. On IL33 and ST2 binding [1], `CN(C)CCNC(=O)c1nc(-c2ccc(Cl)cc2)oc1-c1ccccc1[N+](=O)[O-]` [Compound 246, 2-(4-Chlorophenyl)-N-(2-(dimethylamino)ethyl)-5-(2-nitrophenyl)oxazole-4-carboxamide] had an IC50 of 4.78 µM. Also, in data set [2], the inhibition at 1 µM is 20%, the inhibition at 10 µM was determined as 45% and the EC50 is 6.15 µM. For the same molecule, on IL33 and ST2 binding [3] (30 µM), the inhibition worked out at 110%. Besides, the inhibition on IL33 and ST2 binding [3] (100 µM) worked out at 112%. Also, the CC50 at 24 h in data set [4] (setting [6]) came to 16 µM. For the same molecule, in data set [4] (setting [7]), the CC50 at 24 h was 11.8 µM. In data set [5] (at 100 μM), the “Cellular viability (%) (+) microsome” value stood at 52 at % and the “Cellular viability (%) (−) microsome” value came out at 47 at %.

Molecule `CCOC(=O)c1nc(-c2ccc(Cl)c(C(F)(F)F)c2)oc1-c1ccccc1` [Compound 98, Ethyl 2-(4-chloro-3-(trifluoromethyl)phenyl)-5-phenyloxazole-4-carboxylate] came in with an IC50 at IL33 and ST2 binding [1] of 5.21 µM. Besides, in data set [2], the inhibition at 1 µM is -12% and the inhibition at 10 µM is 30%. Also, at IL33 and ST2 binding [3] (30 µM), the inhibition stood at 110%. In addition, at IL33 and ST2 binding [3] (100 µM), the inhibition stood at 110%. For the same molecule, in data set [5] (at 100 μM), the “Cellular viability (%) (+) microsome” value amounted to 90 at % and the “Cellular viability (%) (−) microsome” value was determined as 83 at %.

In the case of `CCCNC(=O)c1nc(-c2ccc(C(F)(F)F)cc2)oc1-c1cccc(SC)c1` [Compound 292, 5-(3-(Methylthio)phenyl)-N-propyl-2-(4-(trifluoromethyl)phenyl)oxazole-4-carboxamide], the IC50 on IL33 and ST2 binding [1] turned out to be 1.13 µM. In data set [2], the inhibition at 0.1 µM turned out to be 29%, the inhibition at 1 µM worked out at 39%, the inhibition at 10 µM was 42% and the EC50 is 0.09 µM. Also, the inhibition at IL33 and ST2 binding [3] (30 µM) came out at 110%. Further, on IL33 and ST2 binding [3] (100 µM), the inhibition worked out at 112%. For the same molecule, in data set [5] (at 135 μM), the “Cellular viability (%) (+) microsome” value came out at 58 at % and the “Cellular viability (%) (−) microsome” value is given as 55 at %.

As to `CSc1ccc(-c2nc(C(=O)NCCN3CCN(C)CC3)c(-c3ccccc3)o2)cc1` [Compound 272, N-(2-(4-Methylpiperazin-1-yl)ethyl)-2-(4-(methylthio)phenyl)-5-phenyloxazole-4-carboxamide], the IC50 on IL33 and ST2 binding [1] was determined as 4.17 µM. In addition, in data set [2], the inhibition at 1 µM stood at 52%, the inhibition at 10 µM was found to be 79% and the EC50 amounted to 0.42 µM. The inhibition on IL33 and ST2 binding [3] (30 µM) worked out at 97%. Further, the inhibition at IL33 and ST2 binding [3] (100 µM) is 97%. The CC50 at 24 h in data set [4] (setting [6]) came to 5.6 µM. The CC50 at 24 h in data set [4] (setting [7]) amounted to 4.73 µM. Also, in data set [5] (at 100 μM), the “Cellular viability (%) (+) microsome” value is 49 at % and the “Cellular viability (%) (−) microsome” value was found to be 46 at %.

`CN(C)CCNC(=O)c1nc(-c2ccc([N+](=O)[O-])cc2)oc1-c1ccccc1[N+](=O)[O-]` [Compound 277, N-(2-(Dimethylamino)ethyl)-5-(2-nitrophenyl)-2-(4-nitrophenyl)oxazole-4-carboxamide] yielded an IC50 on IL33 and ST2 binding [1] of 14.4 µM. For the same molecule, in data set [2], the inhibition at 1 µM stood at 27% and the inhibition at 10 µM was 31%. The inhibition on IL33 and ST2 binding [3] (30 µM) is 60%. Moreover, the inhibition on IL33 and ST2 binding [3] (100 µM) was found to be 111%. In addition, in data set [4] (setting [6]), the CC50 at 24 h is 46.2 µM. The CC50 at 24 h in data set [4] (setting [7]) is 25.4 µM. Also, in data set [5] (at 100 μM), the “Cellular viability (%) (+) microsome” value stood at 49 at % and the “Cellular viability (%) (−) microsome” value came to 46 at %.

Take `CCNC(=O)c1nc(-c2ccc(C(F)(F)F)cc2)oc1-c1cccc(SC)c1` [Compound 291, N-Ethyl-5-(3-(methylthio)phenyl)-2-(4-(trifluoromethyl)phenyl)oxazole-4-carboxamide]: on IL33 and ST2 binding [1], the IC50 came out at 0.64 µM. Also, in data set [2], the inhibition at 0.1 µM stood at 25%, the inhibition at 1 µM amounted to 40%, the inhibition at 10 µM amounted to 66% and the EC50 was found to be 0.49 µM. Also, the inhibition on IL33 and ST2 binding [3] (30 µM) stood at 112%. At IL33 and ST2 binding [3] (100 µM), the inhibition came out at 111%. Further, in data set [5] (at 160 μM), the “Cellular viability (%) (+) microsome” value is 102 at % and the “Cellular viability (%) (−) microsome” value was 106 at %.

On IL33 and ST2 binding [1], `CCOC(=O)c1nc(-c2ccc(C(F)(F)F)cc2)oc1-c1cccc([N+](=O)[O-])c1` [Compound 33, Ethyl 5-(3-nitrophenyl)-2-(4-(trifluoromethyl)phenyl)oxazole-4-carboxylate] yielded an IC50 of 1.71 µM. Besides, the inhibition at 1 µM in data set [2] is 30%. In addition, the inhibition at 10 µM in data set [2] was 32%. Moreover, the inhibition on IL33 and ST2 binding [3] (30 µM) is 107%; at IL33 and ST2 binding [3] (100 µM), 108%. Besides, the CC50 at 24 h in data set [4] (setting [6]) was 43.5 µM; in data set [4] (setting [7]), 67 µM. Moreover, the “Cellular viability (%) (+) microsome” value in data set [5] (at 100 μM) was found to be 68 at %. In addition, the “Cellular viability (%) (−) microsome” value in data set [5] (at 100 μM) came out at 73 at %.

`CCOC(=O)c1nc(-c2ccc(C(F)(F)F)cc2)oc1-c1ccccc1` [Compound 31, Ethyl 5-phenyl-2-(4-(trifluoromethyl)phenyl)oxazole-4-carboxylate] had an IC50 on IL33 and ST2 binding [1] of 0.78 µM. Further, in data set [2], the inhibition at 0.1 µM is 46%, the inhibition at 1 µM amounted to 56%, the inhibition at 10 µM is 69% and the EC50 was 0.23 µM. In addition, the inhibition at IL33 and ST2 binding [3] (30 µM) came to 110%. Further, the inhibition at IL33 and ST2 binding [3] (100 µM) came out at 109%. Besides, in data set [5] (at 135 μM), the “Cellular viability (%) (+) microsome” value was 66 at % and the “Cellular viability (%) (−) microsome” value was 83 at %.

In turn, `CNC(=O)c1nc(-c2ccc(C(F)(F)F)cc2)oc1-c1cccc(SC)c1` [Compound 290, N-Methyl-5-(3-(methylthio)phenyl)-2-(4-(trifluoromethyl)phenyl)oxazole-4-carboxamide] yielded an IC50 on IL33 and ST2 binding [1] of 4.51 µM. Also, in data set [2], the inhibition at 0.1 µM stood at 28%, the inhibition at 1 µM came to 49% and the inhibition at 10 µM is 59%. The inhibition at IL33 and ST2 binding [3] (30 µM) was determined as 112%. Besides, on IL33 and ST2 binding [3] (100 µM), the inhibition was determined as 112%. In data set [5] (at 135 μM), the “Cellular viability (%) (+) microsome” value is on record as 60 at % and the “Cellular viability (%) (−) microsome” value worked out at 47 at %.

`CC(=O)N1CCN(CCNC(=O)c2nc(-c3ccc(C(F)(F)F)cc3)oc2-c2ccccc2[N+](=O)[O-])CC1` [Compound 284, N-(2-(4-acetylpiperazin-1-yl)ethyl)-5-(2-nitrophenyl)-2-(4-(trifluoromethyl)phenyl)oxazole-4-carboxamide] returned an IC50 at IL33 and ST2 binding [1] of 3.15 µM. For the same molecule, in data set [2], the inhibition at 1 µM was 27% and the inhibition at 10 µM was determined as 39%. On IL33 and ST2 binding [3] (30 µM), the inhibition came to 101%. In addition, on IL33 and ST2 binding [3] (100 µM), the inhibition was 104%. Further, the CC50 at 24 h in data set [4] (setting [6]) came to 46.5 µM. In data set [4] (setting [7]), the CC50 at 24 h was 48.6 µM. For the same molecule, in data set [5] (at 100 μM), the “Cellular viability (%) (+) microsome” value came out at 49 at % and the “Cellular viability (%) (−) microsome” value was 40 at %.

`CCOC(=O)c1nc(-c2cccc(Cl)c2)oc1-c1ccccc1` [Compound 75, Ethyl 2-(3-chlorophenyl)-5-phenyloxazole-4-carboxylate]: at IL33 and ST2 binding [1], the IC50 was found to be 11.7 µM. Besides, in data set [2], the inhibition at 1 µM worked out at 5% and the inhibition at 10 µM stood at 26%. For the same molecule, the inhibition on IL33 and ST2 binding [3] (30 µM) was found to be 93%. Besides, the inhibition on IL33 and ST2 binding [3] (100 µM) is 108%. Moreover, in data set [5] (at 100 μM), the “Cellular viability (%) (+) microsome” value was 100 at % and the “Cellular viability (%) (−) microsome” value is given as 106 at %.
